Results: PubChem BioAssay (NCI)
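Interpolation was linear, between the two tested concentrations surrounding the appropriate level; five concentrations were tested over 48 hours in 96-well plates. The concentration for 50% growth inhibition is given as GI50. Definition used: TGI = concentration required for complete inhibition of growth.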

Experiments:
Assay in all cases: growth of human tumour cells (NCI), 48 h
TK-10 renal = system: TK-10 renal
IGROV1 ovarian = system: IGROV1 ovarian
SNB-19 CNS = system: SNB-19 CNS
SN12C renal = system: SN12C renal
NCI-H226 lung = system: NCI-H226 lung
CCRF-CEM leukemia = system: CCRF-CEM leukemia
SR leukemia = system: SR leukemia
KM12 colon = system: KM12 colon
RPMI-8226 leukemia = system: RPMI-8226 leukemia
MALME-3M melanoma = system: MALME-3M melanoma
SF-295 CNS = system: SF-295 CNS
CAKI-1 renal = system: CAKI-1 renal
K-562 leukemia = system: K-562 leukemia
T-47D breast = system: T-47D breast
A498 renal = system: A498 renal
786-0 renal = system: 786-0 renal
A549 NSCLC = system: A549 NSCLC
LOX IMVI melanoma = system: LOX IMVI melanoma
HL-60(TB) leukemia = system: HL-60(TB) leukemia
SW-620 colon = system: SW-620 colon
UO-31 renal = system: UO-31 renal
MDA-MB-435 = system: MDA-MB-435
OVCAR-4 ovarian = system: OVCAR-4 ovarian
M14 melanoma = system: M14 melanoma
NCI-H522 lung = system: NCI-H522 lung
HS 578T breast = system: HS 578T breast
NCI/ADR-RES ovarian = system: NCI/ADR-RES ovarian
HOP-92 NSCLC = system: HOP-92 NSCLC
DU-145 prostate = system: DU-145 prostate
BT-549 breast = system: BT-549 breast
NCI-H460 lung = system: NCI-H460 lung
PC-3 prostate = system: PC-3 prostate
MCF7 breast = system: MCF7 breast
OVCAR-5 ovarian = system: OVCAR-5 ovarian
HCC-2998 colon = system: HCC-2998 colon
HT29 colon = system: HT29 colon
HOP-62 NSCLC = system: HOP-62 NSCLC
SF-268 CNS = system: SF-268 CNS
HCT-116 colon = system: HCT-116 colon
NCI-H23 lung = system: NCI-H23 lung
UACC-257 melanoma = system: UACC-257 melanoma
RXF 393 renal = system: RXF 393 renal
SK-MEL-28 melanoma = system: SK-MEL-28 melanoma
UACC-62 melanoma = system: UACC-62 melanoma
U251 CNS = system: U251 CNS
SF-539 CNS = system: SF-539 CNS
SK-MEL-5 melanoma = system: SK-MEL-5 melanoma
MOLT-4 leukemia = system: MOLT-4 leukemia
SK-MEL-2 melanoma = system: SK-MEL-2 melanoma
SK-OV-3 ovarian = system: SK-OV-3 ovarian
SNB-75 CNS = system: SNB-75 CNS
OVCAR-3 ovarian = system: OVCAR-3 ovarian
MDA-MB-231 breast = system: MDA-MB-231 breast
EKVX NSCLC = system: EKVX NSCLC
OVCAR-8 ovarian = system: OVCAR-8 ovarian
ACHN renal = system: ACHN renal
HCT-15 colon = system: HCT-15 colon
COLO 205 colon = system: COLO 205 colon

SMILES: COc1ccc(C(C)=C(c2ccc(OCCN(C)C)cc2)c2ccc(OCCN(C)C)cc2)cc1
- GI50 (TK-10 renal): 3.31 µM
- TGI (TK-10 renal): 6.86 µM
- GI50 (IGROV1 ovarian): 1.1 µM
- TGI (IGROV1 ovarian): 3.92 µM
- GI50 (SNB-19 CNS): 1.33 µM
- TGI (SNB-19 CNS): 4.86 µM
- GI50 (SN12C renal): 2 µM
- TGI (SN12C renal): 6.09 µM
- GI50 (NCI-H226 lung): 3.03 µM
- TGI (NCI-H226 lung): 6.89 µM
- GI50 (CCRF-CEM leukemia): 0.624 µM
- TGI (CCRF-CEM leukemia): 2.36 µM
- GI50 (SR leukemia): 0.321 µM
- TGI (SR leukemia): 0.941 µM
- GI50 (KM12 colon): 1.07 µM
- TGI (KM12 colon): 4.21 µM
- GI50 (RPMI-8226 leukemia): 0.584 µM
- TGI (RPMI-8226 leukemia): 1.51 µM
- GI50 (MALME-3M melanoma): 0.439 µM
- TGI (MALME-3M melanoma): 0.893 µM
- GI50 (SF-295 CNS): 0.51 µM
- TGI (SF-295 CNS): 1.18 µM
- GI50 (CAKI-1 renal): 0.647 µM
- TGI (CAKI-1 renal): 2.31 µM
- GI50 (K-562 leukemia): 0.395 µM
- TGI (K-562 leukemia): 0.918 µM
- GI50 (T-47D breast): 0.374 µM
- TGI (T-47D breast): 0.966 µM
- GI50 (A498 renal): 1.13 µM
- TGI (A498 renal): 4.15 µM
- GI50 (786-0 renal): 0.445 µM
- TGI (786-0 renal): 1.1 µM
- GI50 (A549 NSCLC): 1.03 µM
- TGI (A549 NSCLC): 4.48 µM
- GI50 (LOX IMVI melanoma): 0.343 µM
- TGI (LOX IMVI melanoma): 0.741 µM
- GI50 (HL-60(TB) leukemia): 0.477 µM
- TGI (HL-60(TB) leukemia): 0.999 µM
- GI50 (SW-620 colon): 0.639 µM
- TGI (SW-620 colon): 2.22 µM
- GI50 (UO-31 renal): 0.804 µM
- TGI (UO-31 renal): 2.11 µM
- GI50 (MDA-MB-435): 0.507 µM
- TGI (MDA-MB-435): 1.13 µM
- GI50 (OVCAR-4 ovarian): 0.865 µM
- TGI (OVCAR-4 ovarian): 3.25 µM
- GI50 (M14 melanoma): 0.427 µM
- TGI (M14 melanoma): 0.824 µM
- GI50 (NCI-H522 lung): 0.866 µM
- TGI (NCI-H522 lung): 3.62 µM
- GI50 (HS 578T breast): 0.884 µM
- TGI (HS 578T breast): 4.25 µM
- GI50 (NCI/ADR-RES ovarian): 1.34 µM
- TGI (NCI/ADR-RES ovarian): 4.68 µM
- GI50 (HOP-92 NSCLC): 0.633 µM
- TGI (HOP-92 NSCLC): 3.17 µM
- GI50 (DU-145 prostate): 1.81 µM
- TGI (DU-145 prostate): 5.18 µM
- GI50 (BT-549 breast): 1.85 µM
- TGI (BT-549 breast): 5.24 µM
- GI50 (NCI-H460 lung): 0.828 µM
- TGI (NCI-H460 lung): 2.94 µM
- GI50 (PC-3 prostate): 1.36 µM
- TGI (PC-3 prostate): 4.81 µM
- GI50 (MCF7 breast): 0.243 µM
- TGI (MCF7 breast): 0.889 µM
- GI50 (OVCAR-5 ovarian): 1.72 µM
- TGI (OVCAR-5 ovarian): 5.01 µM
- GI50 (HCC-2998 colon): 0.858 µM
- TGI (HCC-2998 colon): 3.49 µM
- GI50 (HT29 colon): 0.49 µM
- TGI (HT29 colon): 1.63 µM
- GI50 (HOP-62 NSCLC): 1.36 µM
- TGI (HOP-62 NSCLC): 3.42 µM
- GI50 (SF-268 CNS): 1.11 µM
- TGI (SF-268 CNS): 4.35 µM
- GI50 (HCT-116 colon): 0.415 µM
- TGI (HCT-116 colon): 2.45 µM
- GI50 (NCI-H23 lung): 2.95 µM
- TGI (NCI-H23 lung): 6.53 µM
- GI50 (UACC-257 melanoma): 0.469 µM
- TGI (UACC-257 melanoma): 0.957 µM
- GI50 (RXF 393 renal): 0.381 µM
- TGI (RXF 393 renal): 0.934 µM
- GI50 (SK-MEL-28 melanoma): 0.464 µM
- TGI (SK-MEL-28 melanoma): 0.904 µM
- GI50 (UACC-62 melanoma): 0.533 µM
- TGI (UACC-62 melanoma): 1.25 µM
- GI50 (U251 CNS): 0.679 µM
- TGI (U251 CNS): 2.61 µM
- GI50 (SF-539 CNS): 0.468 µM
- TGI (SF-539 CNS): 0.948 µM
- GI50 (SK-MEL-5 melanoma): 0.432 µM
- TGI (SK-MEL-5 melanoma): 0.794 µM
- GI50 (MOLT-4 leukemia): 0.544 µM
- TGI (MOLT-4 leukemia): 1.61 µM
- GI50 (SK-MEL-2 melanoma): 0.588 µM
- TGI (SK-MEL-2 melanoma): 1.39 µM
- GI50 (SK-OV-3 ovarian): 3.91 µM
- TGI (SK-OV-3 ovarian): 7.51 µM
- GI50 (SNB-75 CNS): 2.28 µM
- TGI (SNB-75 CNS): 5.95 µM
- GI50 (OVCAR-3 ovarian): 0.585 µM
- TGI (OVCAR-3 ovarian): 1.79 µM
- GI50 (MDA-MB-231 breast): 0.684 µM
- TGI (MDA-MB-231 breast): 2.29 µM
- GI50 (EKVX NSCLC): 1.65 µM
- TGI (EKVX NSCLC): 5.25 µM
- GI50 (OVCAR-8 ovarian): 1.17 µM
- TGI (OVCAR-8 ovarian): 4.54 µM
- GI50 (ACHN renal): 0.763 µM
- TGI (ACHN renal): 2.51 µM
- GI50 (HCT-15 colon): 0.582 µM
- TGI (HCT-15 colon): 2.05 µM
- GI50 (COLO 205 colon): 0.432 µM
- TGI (COLO 205 colon): 0.908 µM
